Assay: hydrogen peroxide decomposition assay of catalase recovered from PLGA matrices
Assay type: biochemical
Settings: catalase removed from PLGA matrices by degradation of the polymer; processed in supercritical CO2 at 45° C. and 200 bar, 30 minutes
Experimental: In a specific example of the use of the invention particles of the protein catalase (ca mean diameter 50 micron) are mixed with the biodegradable polymer poly(DL-lactide-co-glycolide) (PLGA) as per example 3, in the presence of super critical CO2 at 45° C. and 200 bar. After agitation for 30 minutes, the autoclave was depressurized leading to solid dispersions of a monolith form, in which catalase particles are intimately mixed with the biodegradable polymer. FIGS. 3a) and 3b) are scanning electron microscopy images at respective higher and lower magnifications of 10 micron (particles and micropores visible) and 50 micron (particles embedded in “channels”).
Removal of the catalase from the matrices by degradation of the polymer enabled the activity of the enzyme to be quantified using a hydrogen peroxide decomposition assay.

- activity of the enzyme after SCF processing: lost no appreciable activity
Substance: catalase

Source: patent US6670407B2, “Biofunctional polymers prepared in supercritical fluid” (University of Nottingham, priority 1997, dated 2003)
